Read-outs that look alike come from different tables or passages of the source.
Columns and labels:
HIV-1 RT mutant Y181I = assay: single round infection assay, Y181I; assay type: cell-based
Method: (§1) The human osteosarcoma cell line, HOS, was obtained from Dr. Richard Schwartz (Michigan State University, East Lansing, MI) and grown in Dulbecco’s modified Eagle’s medium (Invitrogen, Carlsbad, CA) supplemented with 5 % (v/v) fetal bovine serum, 5 % newborn calf serum, and penicillin (50 units/ml) plus streptomycin (50 µg/ml; Quality Biological, Gaithersburg, MD). Virion production and single-round infectivity assays were used to determine antiviral activity (IC50 values) of the compounds as previously described.
(§2) pNLNgoMIVR-ΔEnv.LUC has been described previously. The RT open reading frame was removed from pNLNgoMIVR-ΔEnv.LUC (digestion with SpeI and SalI) and inserted between the SpeI and SalI sites of pBluescript II KS+. Using that construct as the wild-type template, we prepared the following HIV-1 RT mutants using the QuikChange II XL (Stratagene, La Jolla, CA) site-directed mutagenesis protocol kit: L100I, K103N, Y181C, Y188L, H221Y, K103N/Y181C, G190A, G190S, M230L, P236L, L100I/K103N, K103N/P225H, V106A/G190A/F227L, V106A, L234I, V106A/F227L, V106A/L234I, V106A/F227L/L234I, E40K, D67E, K101E, V111A, E138K, M184I, M184V, K101E/M184I, K101E/M184V, E138K/M184I, E138K/M184V, K101P, Y181I, and K101P/V179I. The following sense oligonucleotides were used with matching cognate antisense oligonucleotides (not shown) (Integrated DNA Technologies, Coralville, IA) in the mutagenesis: L100I, 5′-[…]-3′; L100I 2-103, 5′-[…]-3′; K103N, 5′-[…]-3′; Y181C, 5′-[…]-3′; Y188L, 5′-[…]-3′; H221Y, 5′-[…]-3′; G190A, 5′-[…]-3′; G190S, 5′-[…]-3′; P225H, 5′-[…]-3′; F227, 5′-[…]-3′; M230L, 5′-[…]-3′; P236L, 5′-[…]-3′; V106A, 5′-[…]-3′; L234I, 5′-[…]-3′; E40K, 5′-[…]-3′; D67E, 5′-[…]-3′; K101E, 5′-[…]-3′; V111A, 5′-[…]-3′; E138K, 5′-[…]-3′; M184I, 5′-[…]-3′; M184V, 5′-[…]-3′; K101P, 5′-[…]-3′; Y181I, 5′-[…]-3′; K101P/V179I, 5′-[…]-3′. The double mutants K103N/Y181C, K103N/P225H, and L100I/K103N were made using the previously generated K103N mutant and the appropriate oligonucleotides to add the second mutation, Y181C, P225, and L100I respectively. The double mutants V106A/F227L and V106A/L234I were prepared using the previously generated V106A mutant and the appropriate oligonucleotides to add the second mutation, F227L and L234I, respectively. The double mutants K101E/M184I and K101E/M184V were constructed using the previously generated K101E mutant and the appropriate oligonucleotides to add the second mutation, M184I and M184V, respectively. The double mutants E138K/M184I and E138K/M184V were constructed using the previously generated E138K mutant and the appropriate oligonucleotides for the second mutation, M184I and M184V, respectively. The triple mutant V106A/F227L/L234I was made using the previously generated V106A/F227L double mutant and the appropriate oligonucleotides for the third mutation, L234I. The triple mutant V106A/G190A/F227L was constructed in a series of steps using the previously generated V106A mutant and the appropriate oligonucleotides for the second mutation, G190A, to generate the double mutant V106A/G190A, and then the triple mutant was made using double mutant V106A/G190A and oligonucleotides for the third mutation, F227L. The DNA sequence of each construct was verified by DNA sequence determination. The sequences encoding the mutant RTs were then subcloned into pNLNgoMIVR-ΔEnv.LUC (between the KpnI and SalI sites) to produce the mutant HIV-1 constructs. These DNA sequences were also checked independently by DNA sequence determination.
(§3) 10.1186/s12977-016-0244-2 The IC50 values (nM) of RPV and the RPV analogs were determined against the NNRTI resistant mutants were measured by using a single round infection assay, n = 4. The concentrations (nM) are measured by reductions in luciferase reporter activity followed by the standard deviations. […]

[1] = system: HIV-1 RT mutant K103N/P225H; assay: single round infection assay, K103N/P225H; assay type: cell-based; details: Human immunodeficiency virus 1
Method: as §1, §2, §3

[2] = system: HIV-1 RT mutant V106A/F227L/L234I; assay: single round infection assay, V106A/F227L/L234I; assay type: cell-based; details: for IC50: ± SD, n=4
Method: as §1, §2, §3

HIV-1 RT mutant E138K = assay: single round infection assay, E138K; assay type: cell-based; details: E138K vs WT
Method: as §1, §2, §3

[3] = system: HIV-1 RT mutant V106A/G190A/F227L; assay: single round infection assay, V106A/G190A/F227L; assay type: cell-based
Method: as §1, §2, §3

HIV-1 RT mutant G190A = assay: single round infection assay, G190A; assay type: cell-based; details: Human immunodeficiency virus 1
Method: as §1, §2, §3

HIV-1 RT mutant K103N = system: HIV-1 RT mutant K103N; parameters: method as in PMID 23217210; details: previous study; cited from earlier work
HIV-1 RT mutant L100I = system: HIV-1 RT mutant L100I; parameters: method as in PMID 23217210; details: previous study; cited from earlier work
[4] = system: HIV-1 RT mutant E138K/M184I; assay: single round infection assay, E138K/M184I; assay type: cell-based; details: E138K/M184I vs WT
Method: as §1, §2, §3

HIV-1 RT mutant K101P = assay: single round infection assay, K101P; assay type: cell-based
Method: as §1, §2, §3

HIV-1 RT mutant Y181C = system: HIV-1 RT mutant Y181C; parameters: method as in PMID 23217210; details: previous study; cited from earlier work
WT HIV-1 [5] = assay: single round infection luciferase assay, WT HIV-1; assay type: cell-based; details: Human immunodeficiency virus 1
Method: as §1, §2, §3

HIV-1 RT mutant M230L = assay: single round infection assay, M230L; assay type: cell-based; details: M230L vs WT
Method: as §1, §2, §3

[6] = system: HIV-1 RT mutant V106A/F227L; assay: single round infection assay, V106A/F227L; assay type: cell-based; details: V106A/F227L vs WT
Method: as §1, §2, §3

HIV-1 RT mutant P236L = assay: single round infection assay, P236L; assay type: cell-based
Method: as §1, §2, §3

HIV-1 RT mutant D67E = assay: single round infection assay, D67E; assay type: cell-based; details: D67E vs WT
Method: as §1, §2, §3

HIV-1 RT mutant H221Y = system: HIV-1 RT mutant H221Y; parameters: method as in PMID 23217210; details: previous study; cited from earlier work
WT HIV-1 [7] = details: previous study; cited from earlier work
[8] = system: HIV-1 RT mutant K103N/Y181C; parameters: method as in PMID 23217210; details: previous study; cited from earlier work
HIV-1 RT mutant G190S = assay: single round infection assay, G190S; assay type: cell-based; details: Human immunodeficiency virus 1
Method: as §1, §2, §3

[9] = system: HIV-1 RT mutant K101P/V179I; assay: single round infection assay, K101P/V179I; assay type: cell-based
Method: as §1, §2, §3

**Q.** What does the source list for Cc1cc(/C=C/C#N)cc(C)c1Nc1nc(Nc2ccc(C#N)cc2)nc2[nH]cnc12 [compound 11]?
**A.** IC50 (HIV-1 RT mutant Y181I; Human immunodeficiency virus 1): 2.4 nM; fold-change of IC50 of the mutant relative to WT (HIV-1 RT mutant Y181I; Y181I vs WT): 4; IC50 [1]: 0.22 ± 0.06 nM; IC50 ([2]; Human immunodeficiency virus 1, V106A/F227L/L234I (selected by DOR)): < 5 nM; IC50 ([2]; V106A/F227L/L234I (selected by DOR)): 3.4 ± 1.1 nM; fold-change of IC50 of the mutant relative to WT ([2]; V106A/F227L/L234I vs WT): 6; fold-change of IC50 of the mutant relative to WT (HIV-1 RT mutant E138K): < 2; IC50 ([3]; Human immunodeficiency virus 1): 0.98 ± 0.17 nM; fold-change of IC50 of the mutant relative to WT ([3]; V106A/G190A/F227L vs WT): < 2; IC50 (HIV-1 RT mutant G190A): 0.45 ± 0.01 nM; IC50 (HIV-1 RT mutant K103N): < 7 nM; IC50 (HIV-1 RT mutant L100I): < 7 nM; fold-change of IC50 of the mutant relative to WT [4]: < 2; IC50 (HIV-1 RT mutant K101P; Human immunodeficiency virus 1): 2.4 nM; fold-change of IC50 of the mutant relative to WT (HIV-1 RT mutant K101P; K101P vs WT): 4; IC50 (HIV-1 RT mutant Y181C): < 7 nM; IC50 (WT HIV-1 [5]): 0.56 ± 0.08 nM; fold-change of IC50 of the mutant relative to WT (HIV-1 RT mutant M230L): 3; fold-change of IC50 of the mutant relative to WT [6]: < 2; IC50 (HIV-1 RT mutant P236L; Human immunodeficiency virus 1): 0.87 ± 0.2 nM; fold-change of IC50 of the mutant relative to WT (HIV-1 RT mutant P236L; P236L vs WT): < 2; fold-change of IC50 of the mutant relative to WT (HIV-1 RT mutant D67E): < 2; IC50 (HIV-1 RT mutant H221Y): < 7 nM; IC50 (WT HIV-1 [7]): < 7 nM; IC50 [8]: < 5 nM; IC50 (HIV-1 RT mutant G190S): 0.2 ± 0.07 nM; IC50 ([9]; Human immunodeficiency virus 1): 2.5 nM; fold-change of IC50 of the mutant relative to WT ([9]; K101P/V179I vs WT): 4

— publication PMC4754833, “Rilpivirine analogs potently inhibit drug-resistant HIV-1 mutants” (Retrovirology, 2016)
